Data set [1] concerns M. tuberculosis H37Rv (ATCC 27294). Nature of the data set: Time-kill curves (bactericidal kinetics). The data set is classed as cell-based, Mycobacterium tuberculosis.
Data set [2] deals with cytochrome P450 isoforms (all isoforms tested). Nature of the data set: in vitro. Particulars: human, microsomes.
In the next data set the test system is human plasma. Nature of the data set: Plasma protein binding assay (rapid equilibrium dialysis). Particulars: 5 µM, 4 h at 37°C. The data set is classed as in vitro ADME. The protocol: (§1) In vitro hydrolysis was performed by HPLC method using a Shimadzu HPLC model CBMH20A (Shimadzu®) and an Agilent® Eclipse XDB C18 column (250 × 4.6 mm, 5 µm). The isocratic flow was 60:40 (water:acetonitrile, v/v) and the flow rate was 1.0 mL/min. The volume injected was 20.0 µL and the wavelength in the detector (UVHVIS) was 210 nm. […]
(§2) of 100 µg/mL. This solution was then diluted to 20 µg/mL using two different PBS buffers to provide the following pH values: 5.5 and 7.4. During the assay, all samples were maintained at constant agitation using a shaker (400 rpm) at 37°C. The aliquots were taken from the solution at the following times: 0, 1, 2, 4, 8, 10, 20, and 24 h. All analyses were conducted in triplicate, and the results were expressed as the averages of the concentrations in percentages (±standard error of the […]
(§3) Plasma Protein Binding Assay […]
of the mixture in a RED (Rapid Equilibrium Dialysis, Pierce) device against PBS and incubated on an orbital shaker for 4 h at 37°C. Aliquots from plasmaH and PBSHbased samples were collected, an equal volume of PBS was added to the plasma sample, and an equal volume of plasma was added to the PBS sample. […] The samples were centrifuged and the supernatant was recovered and analyzed by Liquid chromatography–mass spectrometry (LCHMS)/MS. […]

Data set [3] has as its system Candida albicans (ATCC 10231). Nature of the data set: Spectrum of activity, OD570 after 48 h. It counts as cell-based. The following applies: ATCC10231, read-out: MIC90 (antimicrobial activity). The method, then: (§4) Determination of Minimal Inhibitory Concentration (MIC90) Against Bacteria in Dormant […]
(§5) The selective compounds (SI ≥ 10) were tested against the mycobacterium in a dormant state. The cultures were thawed, diluted in Middlebrook 7H12 broth, and sonicated for 5 s. The cultures were diluted to obtain the concentration between […] and 2 × 10^6 CFU/mL. TwoHfold serial dilutions of the compounds were prepared in a volume of […] in white 96Hwell microtiter plates, followed by the addition of […] of the cell suspension. The microplate cultures were placed under anaerobic conditions (oxygen concentration less than 0.16%) by using an Anoxomat model WS8080 (MART Microbiology) followed by two cycles of evacuation and filling with a mixture of 10% hydrogen (H2), 5% carbon dioxide (CO2), and the balance with nitrogen (N2). An anaerobic indicator strip was placed inside the chamber to visually confirm the removal of oxygen. The plates were incubated at 37°C for 10 days and then transferred to an ambient gaseous condition (5% CO2H enriched air) incubator for a 28 h “recovery.” On day 11 (after the 28Hh aerobic recovery), we determined the luminescence and calculated the MIC90.4
(§6) To establish the spectrum activity, we determined the MIC90 against E. coli (ATCC 25922) and S. aureus (ATCC 29213) by measuring the optical density at 570 nm after 16 h of incubation in Mueller–Hinton II broth (Becton Dickinson, Sparks; Maryland, United States) and against C. albicans (ATCC 10231) at OD570 after 48 h in Cellgro RPMI 1640 medium (Mediatech Inc., Manassas, Virginia, United States). The MIC was defined as the lowest concentration resulting in 90% reduction in absorption relative to that of untreated control cultures.
(§7) Determination of Minimal Inhibitory Concentration Against Isogenic Monoresistant Strains

For another data set, the system named is M. tuberculosis Erdman. Nature of the data set: Infection and treatment: efficacy against acute TB in mice. The data set is classed as in vivo, mouse. The following applies: 200 mg/kg in microemulsion, once daily oral gavage, 5 days/week, day 10 to 29 postinfection, BALB/c mice.
The test system of data set [4] is M. tuberculosis H37Rv (ATCC 27294) in J774A.1 macrophages. Nature of the data set: Intramacrophage activity. It counts as cell-based, Mycobacterium tuberculosis.
For data set [5], the system named is BALB/c mice. Nature of the data set: Tolerability test in BALB/c mice and toxicological analysis. The following applies: 10 days.
Another data set deals with M. tuberculosis H37Rv. Nature of the data set: Microarray gene expression analysis. The data set is classed as cell-based, Mycobacterium tuberculosis. The following applies: 4 h of exposure at 2× MIC, versus vehicle.
Another data set concerns Mtb H37Rv (ATCC 27294). Nature of the data set: Resazurin microtiter assay (REMA), MIC90 against bacteria in active state. The data set is classed as cell-based. Particulars: Mycobacterium tuberculosis.
Data set [6] relates to Staphylococcus aureus (ATCC 29213). Nature of the data set: Spectrum of activity, OD570 after 16 h. The following applies: ATCC29213, read-out: MIC90 (antimicrobial activity). It counts as cell-based. The method, then: as §4, §5, §6, §7
Data set [7] concerns Escherichia coli (ATCC 25922). Nature of the data set: Spectrum of activity, OD570 after 16 h. The data set is classed as cell-based. The following applies: ATCC25922, read-out: MIC90 (antimicrobial activity). The protocol: as §4, §5, §6, §7
The subject of data set [8] is mouse peripheral blood reticulocytes. The following applies: 50, 100, 200 and 500 mg/kg by gavage, Swiss mice.
Data set [9] can be described thus: Caco-2 permeability assay. The following applies: human, basolateral to apical. It counts as in vitro ADME. The protocol:
as §1, §2, §3
(§8) of the mixture in a RED (Rapid Equilibrium Dialysis, Pierce) device against PBS and incubated on an orbital shaker for 4 h at 37°C. […] The samples were centrifuged and the supernatant was recovered and analyzed by Liquid chromatography–mass spectrometry (LCHMS)/MS. […]
(§9) the twoHday interval. […] Similarly, for basolateral to apical (B→A) permeability, the compound was added to the B side and the amount of permeation was determined on the A side. […]
(In general: Passage across Caco-2 layers is used to estimate intestinal permeability.)

The next data set relates to Caco-2 cells. Nature of the data set: Caco-2 permeability assay. It counts as in vitro ADME. The protocol:
as §1, §2, §3, §8, §9

Data set [10] in a line: Cytotoxicity against MRC-5 cell line. The following applies: human, cytotoxicity IC50, MRC-5 cell line.
Data set [11] has as its system BALB/c mice. Particulars: H&E, group treated with compound 8.
Setting [12] is: 200 mg/kg daily oral, vs control group.

These results are taken from publication PMC5677254, “Design, Synthesis, and Characterization of N-Oxide-Containing Heterocycles with in Vivo Sterilizing Antitubercular Activity” (Journal of Medicinal Chemistry, 2017).

By IC50 is commonly meant the midpoint of a concentration-inhibition curve. The low end stands for higher potency, the high end for lower potency. A word on the MIC90: it is the lowest concentration that inhibits either 90% of growth or 90% of the strains tested, depending on the study. As a reminder, the Papp B→A is how fast a substance crosses the layer from the basolateral side.

Converted amounts (≈) assume the structure as drawn. “And” between values parts separate entries of the source, which are not always exact repeats. Equal entries are not always repeated. “Also recorded” adds a separate entry of the source. Where two headings read alike, the source gives them in different places.

`O=C(N/N=C/c1ccc2no[n+]([O-])c2c1)c1ccncc1` [Compound 8, (E)-6-((2-Isonicotinoylhydrazono)methyl)benzo[c][1,2,5]oxadiazole 1-Oxide]: the “reduction of CFU (sterilization of cultures)” value in data set [1] (after 48 h of exposure, 41.24 μM) is listed as approximately 6.7 log10. In addition, the bactericidal profile entry in data set [1] (time-kill kinetic experiments up to 15 days) is “bactericidal with an early bactericidal effect”. Moreover, the half-inhibitory concentration (IC50) was more than 15 µM in [2] and 147 µg/mL (≈ 519 µM) in data set [10]. The “human plasma protein binding (% free)” value with human plasma came out at 46.5 % free. Besides, the MIC90 is more than 200 µM in [3]; 1.1 µM and 0.31 µg/mL in the data set on Mtb H37Rv (ATCC 27294) (actively replicating M. tuberculosis H37Rv, REMA, read-out: MIC90); 1.1 µM (≈ 0.312 µg/mL) in the data set with Mtb H37Rv (ATCC 27294) (supplementary CSV, read-out: Mtb MIC90); more than 200 µM in data set [6]; more than 200 µM in [7]. The “Mtb colonies (CFU) in homogenized lungs” value in the data set with M. tuberculosis Erdman is recorded as “reduction of Mtb to undetectable levels; also recorded: no colonies were observed; also recorded: No detectable Mtb”. In data set [4], the intracellular inhibition result was “around 90%”. In the data set on BALB/c mice [5] (200 mg/kg daily oral gavage), the “behavior parameters (hippocratic screening)” value is “No significant variation in the behavior”. In the data set on BALB/c mice [5] (setting [12]), the “alanine aminotransferase in plasma” value was “no significant differences”. Further, the “alkaline phosphatase in plasma” value in the data set with BALB/c mice [5] (setting [12]) was “no significant differences”. Further, the “aspartate aminotransferase in plasma” value with BALB/c mice [5] (setting [12]) is reported as “no significant differences”. Besides, the “changes in the weight of organs (heart, lungs, spleen, kidneys, liver)” value in the data set on BALB/c mice [5] (setting [12]) is reported as “No statistically significant difference”. The “effect on gene expression” value in the data set with M. tuberculosis H37Rv is given as “significant upregulation in the majority of ribosomal genes as well as all genes encoding subunits of ATP synthase”. In addition, the “genotoxicity (micronucleated reticulocytes)” value in [8] was “not genotoxic at any concentration tested”. Moreover, in data set [9], the basolateral-to-apical permeability (Papp B→A) was found to be 3.9 ×10⁻⁶ cm/s. The Caco-2 permeability profile result in the data set on Caco-2 cells is reported as “good permeability profile”. The histology of kidneys result in the data set with BALB/c mice [11] is reported as “morphologically normal”.
